In ChEMBL document CHEMBL5291721, “A preclinical secondary pharmacology resource illuminates target-adverse drug reaction associations of marketed drugs” (Nat Commun, 2023):

Tests used:
[1] = target: T1, Alpha-1A adrenergic receptor (Homo sapiens, UniProt P35348); type: functional, cell-based
T1 sequence (P35348 whole entry): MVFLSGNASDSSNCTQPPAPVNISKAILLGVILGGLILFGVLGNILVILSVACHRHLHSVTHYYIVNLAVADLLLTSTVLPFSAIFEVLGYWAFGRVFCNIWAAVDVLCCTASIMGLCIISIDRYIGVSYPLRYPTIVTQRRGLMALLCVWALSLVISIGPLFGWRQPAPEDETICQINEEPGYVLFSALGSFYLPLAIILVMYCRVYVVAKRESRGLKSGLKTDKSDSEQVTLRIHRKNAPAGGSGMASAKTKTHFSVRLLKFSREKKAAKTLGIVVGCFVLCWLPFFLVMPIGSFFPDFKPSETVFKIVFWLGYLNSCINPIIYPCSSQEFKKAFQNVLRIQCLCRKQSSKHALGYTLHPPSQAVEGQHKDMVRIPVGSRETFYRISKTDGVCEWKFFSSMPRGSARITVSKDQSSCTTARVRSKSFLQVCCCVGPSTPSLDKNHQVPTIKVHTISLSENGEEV

[2] = target: Beta-2 adrenergic receptor (Homo sapiens, UniProt P07550); type: functional, cell-based
[3] = target: Muscarinic acetylcholine receptor M3 (Homo sapiens, UniProt P20309)
Cannabinoid receptor 1 = Cannabinoid receptor 1 (Homo sapiens, UniProt P21554); type: functional, cell-based
Estrogen receptor = target: T2, Estrogen receptor (Homo sapiens, UniProt P03372)
T2 sequence (P03372 whole entry): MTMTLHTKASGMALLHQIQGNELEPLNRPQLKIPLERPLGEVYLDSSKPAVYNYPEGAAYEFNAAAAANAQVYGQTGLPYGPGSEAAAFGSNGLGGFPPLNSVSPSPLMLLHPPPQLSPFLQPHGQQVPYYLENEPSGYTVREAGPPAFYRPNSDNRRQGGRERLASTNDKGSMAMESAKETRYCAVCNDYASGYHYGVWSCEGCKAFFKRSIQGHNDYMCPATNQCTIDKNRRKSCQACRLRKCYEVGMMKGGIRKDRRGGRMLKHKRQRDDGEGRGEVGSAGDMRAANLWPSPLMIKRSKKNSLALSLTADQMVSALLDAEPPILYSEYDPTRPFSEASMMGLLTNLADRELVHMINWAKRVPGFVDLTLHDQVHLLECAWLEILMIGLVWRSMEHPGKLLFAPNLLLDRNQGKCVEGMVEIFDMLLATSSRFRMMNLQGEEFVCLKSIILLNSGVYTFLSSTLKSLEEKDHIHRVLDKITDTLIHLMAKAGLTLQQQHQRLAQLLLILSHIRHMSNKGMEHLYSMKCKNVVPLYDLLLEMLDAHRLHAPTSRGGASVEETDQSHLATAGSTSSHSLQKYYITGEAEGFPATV

Histamine H1 receptor = Histamine H1 receptor (Homo sapiens, UniProt P35367)
[4] = target: Prostaglandin G/H synthase 1 (Homo sapiens, UniProt P23219); type: functional
[5] = target: Sodium-dependent noradrenaline transporter (Homo sapiens, UniProt P23975)
Thromboxane A2 receptor = target: T3, Thromboxane A2 receptor (Homo sapiens, UniProt P21731); type: functional, cell-based
T3 sequence (P21731 whole entry): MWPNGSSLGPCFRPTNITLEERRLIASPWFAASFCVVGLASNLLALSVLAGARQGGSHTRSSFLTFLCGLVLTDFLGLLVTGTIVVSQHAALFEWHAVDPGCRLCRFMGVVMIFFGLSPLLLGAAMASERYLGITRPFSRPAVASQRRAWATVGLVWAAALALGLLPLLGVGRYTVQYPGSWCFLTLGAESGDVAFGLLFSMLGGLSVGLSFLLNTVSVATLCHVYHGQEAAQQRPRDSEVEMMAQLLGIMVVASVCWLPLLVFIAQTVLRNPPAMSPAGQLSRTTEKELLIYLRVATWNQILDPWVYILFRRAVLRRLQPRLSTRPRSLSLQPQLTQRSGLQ

Progesterone receptor = target: T4, Progesterone receptor (Homo sapiens, UniProt P06401); type: functional
T4 sequence (P06401 whole entry): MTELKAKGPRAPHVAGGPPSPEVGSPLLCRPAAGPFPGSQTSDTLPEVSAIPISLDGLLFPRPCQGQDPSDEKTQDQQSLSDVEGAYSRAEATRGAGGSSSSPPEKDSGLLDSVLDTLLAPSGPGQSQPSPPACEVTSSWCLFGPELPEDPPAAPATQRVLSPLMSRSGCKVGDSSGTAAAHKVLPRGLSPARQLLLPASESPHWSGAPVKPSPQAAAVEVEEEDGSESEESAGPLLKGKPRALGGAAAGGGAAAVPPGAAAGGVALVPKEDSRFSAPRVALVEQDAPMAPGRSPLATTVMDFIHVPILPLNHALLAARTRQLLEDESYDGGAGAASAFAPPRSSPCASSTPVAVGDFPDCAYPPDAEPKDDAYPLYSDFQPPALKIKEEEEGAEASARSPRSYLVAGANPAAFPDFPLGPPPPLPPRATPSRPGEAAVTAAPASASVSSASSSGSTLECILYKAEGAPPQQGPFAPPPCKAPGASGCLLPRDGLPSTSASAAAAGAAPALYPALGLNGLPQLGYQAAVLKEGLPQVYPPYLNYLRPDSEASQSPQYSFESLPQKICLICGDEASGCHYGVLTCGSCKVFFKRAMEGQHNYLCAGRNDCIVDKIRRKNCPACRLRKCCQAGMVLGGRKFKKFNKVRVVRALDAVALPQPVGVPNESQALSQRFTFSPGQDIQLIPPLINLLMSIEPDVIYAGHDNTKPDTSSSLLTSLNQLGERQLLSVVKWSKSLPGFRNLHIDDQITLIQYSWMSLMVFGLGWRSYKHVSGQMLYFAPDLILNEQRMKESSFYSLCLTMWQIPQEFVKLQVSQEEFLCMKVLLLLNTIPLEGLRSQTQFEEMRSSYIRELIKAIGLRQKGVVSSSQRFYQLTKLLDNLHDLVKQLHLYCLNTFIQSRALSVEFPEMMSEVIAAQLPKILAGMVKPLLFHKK

Mu-type opioid receptor = Mu-type opioid receptor (Homo sapiens, UniProt P35372)
Histamine H3 receptor = Histamine H3 receptor (Homo sapiens, UniProt Q9Y5N1)
[6] = target: Voltage-dependent L-type calcium channel subunit alpha-1C (Rattus norvegicus, UniProt P22002); type: functional
Further: assay procedure not described here.

Sequence of Cannabinoid receptor 1 (P21554 whole entry): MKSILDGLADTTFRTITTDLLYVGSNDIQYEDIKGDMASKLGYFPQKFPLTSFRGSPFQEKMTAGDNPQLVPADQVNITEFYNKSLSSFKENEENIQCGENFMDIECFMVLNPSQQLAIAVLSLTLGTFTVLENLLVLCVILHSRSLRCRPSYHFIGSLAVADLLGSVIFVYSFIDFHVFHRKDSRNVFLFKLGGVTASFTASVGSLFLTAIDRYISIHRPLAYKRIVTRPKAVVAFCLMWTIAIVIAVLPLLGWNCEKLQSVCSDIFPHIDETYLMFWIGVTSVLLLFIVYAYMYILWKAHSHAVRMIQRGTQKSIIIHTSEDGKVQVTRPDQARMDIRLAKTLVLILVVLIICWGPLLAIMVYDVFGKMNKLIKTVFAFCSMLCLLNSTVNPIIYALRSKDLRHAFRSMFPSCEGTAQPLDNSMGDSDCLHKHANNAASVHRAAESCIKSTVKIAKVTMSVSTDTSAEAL
Sequence of Beta-2 adrenergic receptor (P07550 whole entry): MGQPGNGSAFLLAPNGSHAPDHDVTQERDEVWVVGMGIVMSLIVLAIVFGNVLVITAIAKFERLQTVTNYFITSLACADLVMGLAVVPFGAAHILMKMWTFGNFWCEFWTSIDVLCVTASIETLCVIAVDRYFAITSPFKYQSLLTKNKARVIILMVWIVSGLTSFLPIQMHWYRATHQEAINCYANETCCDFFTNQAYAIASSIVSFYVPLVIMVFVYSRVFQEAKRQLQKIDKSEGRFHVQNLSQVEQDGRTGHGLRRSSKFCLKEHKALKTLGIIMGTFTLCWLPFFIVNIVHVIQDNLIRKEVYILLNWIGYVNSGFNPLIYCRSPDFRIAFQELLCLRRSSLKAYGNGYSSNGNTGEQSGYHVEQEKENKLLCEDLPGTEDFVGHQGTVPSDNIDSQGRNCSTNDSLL
Sequence of Sodium-dependent noradrenaline transporter (P23975 whole entry): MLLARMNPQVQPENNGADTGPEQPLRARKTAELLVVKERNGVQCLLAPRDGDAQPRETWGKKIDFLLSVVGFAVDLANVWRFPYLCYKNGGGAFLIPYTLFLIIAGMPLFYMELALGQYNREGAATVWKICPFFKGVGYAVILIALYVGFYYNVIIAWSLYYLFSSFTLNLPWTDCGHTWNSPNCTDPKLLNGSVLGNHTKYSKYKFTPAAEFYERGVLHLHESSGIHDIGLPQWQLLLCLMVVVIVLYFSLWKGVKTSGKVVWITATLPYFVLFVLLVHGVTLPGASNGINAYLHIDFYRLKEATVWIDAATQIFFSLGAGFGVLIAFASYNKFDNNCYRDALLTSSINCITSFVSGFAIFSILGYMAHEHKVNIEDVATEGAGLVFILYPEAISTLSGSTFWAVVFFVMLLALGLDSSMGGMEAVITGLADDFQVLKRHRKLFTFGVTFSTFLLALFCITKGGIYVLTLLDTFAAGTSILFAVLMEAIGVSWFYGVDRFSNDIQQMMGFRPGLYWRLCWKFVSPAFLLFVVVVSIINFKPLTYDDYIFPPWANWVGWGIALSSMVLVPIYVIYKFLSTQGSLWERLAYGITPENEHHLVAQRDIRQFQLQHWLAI
Sequence of Prostaglandin G/H synthase 1 (P23219 whole entry): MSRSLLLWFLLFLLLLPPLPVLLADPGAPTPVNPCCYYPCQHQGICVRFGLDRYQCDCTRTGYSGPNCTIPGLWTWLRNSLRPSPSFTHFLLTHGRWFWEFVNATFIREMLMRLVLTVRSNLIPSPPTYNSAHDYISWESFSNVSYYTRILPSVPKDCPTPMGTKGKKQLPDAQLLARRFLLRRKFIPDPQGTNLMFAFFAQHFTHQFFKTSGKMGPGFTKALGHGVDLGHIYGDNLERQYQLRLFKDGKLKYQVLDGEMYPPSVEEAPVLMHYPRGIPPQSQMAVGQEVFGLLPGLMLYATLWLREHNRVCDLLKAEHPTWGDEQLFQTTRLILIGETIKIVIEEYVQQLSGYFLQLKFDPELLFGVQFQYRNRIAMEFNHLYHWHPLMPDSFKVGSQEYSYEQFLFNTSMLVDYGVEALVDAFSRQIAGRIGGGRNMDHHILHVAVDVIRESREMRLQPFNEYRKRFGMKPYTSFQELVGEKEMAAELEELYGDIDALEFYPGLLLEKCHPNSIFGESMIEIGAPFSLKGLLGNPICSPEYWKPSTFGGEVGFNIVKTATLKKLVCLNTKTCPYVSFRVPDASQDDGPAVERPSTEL
Sequence of Histamine H1 receptor (P35367 whole entry): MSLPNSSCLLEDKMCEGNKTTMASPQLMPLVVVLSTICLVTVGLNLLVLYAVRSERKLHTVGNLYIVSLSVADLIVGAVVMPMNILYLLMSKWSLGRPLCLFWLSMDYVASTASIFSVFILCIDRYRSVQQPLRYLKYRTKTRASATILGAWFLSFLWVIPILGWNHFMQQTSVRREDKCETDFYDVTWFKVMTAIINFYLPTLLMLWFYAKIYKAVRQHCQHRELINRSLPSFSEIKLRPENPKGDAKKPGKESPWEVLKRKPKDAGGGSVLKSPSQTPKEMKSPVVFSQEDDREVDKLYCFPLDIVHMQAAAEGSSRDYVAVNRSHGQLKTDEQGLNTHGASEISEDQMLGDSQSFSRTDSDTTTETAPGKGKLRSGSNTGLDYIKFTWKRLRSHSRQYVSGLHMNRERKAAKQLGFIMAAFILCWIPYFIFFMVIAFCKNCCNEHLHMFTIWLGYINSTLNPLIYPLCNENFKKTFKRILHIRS
Sequence of Mu-type opioid receptor (P35372 whole entry): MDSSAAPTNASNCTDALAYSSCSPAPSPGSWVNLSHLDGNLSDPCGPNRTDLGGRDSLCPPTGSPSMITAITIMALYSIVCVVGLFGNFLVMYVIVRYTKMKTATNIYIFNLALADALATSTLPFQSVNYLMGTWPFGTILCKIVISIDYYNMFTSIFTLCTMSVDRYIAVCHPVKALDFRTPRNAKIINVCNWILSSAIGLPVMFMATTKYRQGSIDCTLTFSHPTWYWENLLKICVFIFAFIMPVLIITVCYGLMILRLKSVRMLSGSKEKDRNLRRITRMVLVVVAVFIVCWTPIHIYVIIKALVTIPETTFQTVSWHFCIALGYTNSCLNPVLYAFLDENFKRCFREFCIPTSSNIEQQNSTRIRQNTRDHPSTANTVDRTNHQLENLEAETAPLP
Sequence of Muscarinic acetylcholine receptor M3 (P20309 whole entry): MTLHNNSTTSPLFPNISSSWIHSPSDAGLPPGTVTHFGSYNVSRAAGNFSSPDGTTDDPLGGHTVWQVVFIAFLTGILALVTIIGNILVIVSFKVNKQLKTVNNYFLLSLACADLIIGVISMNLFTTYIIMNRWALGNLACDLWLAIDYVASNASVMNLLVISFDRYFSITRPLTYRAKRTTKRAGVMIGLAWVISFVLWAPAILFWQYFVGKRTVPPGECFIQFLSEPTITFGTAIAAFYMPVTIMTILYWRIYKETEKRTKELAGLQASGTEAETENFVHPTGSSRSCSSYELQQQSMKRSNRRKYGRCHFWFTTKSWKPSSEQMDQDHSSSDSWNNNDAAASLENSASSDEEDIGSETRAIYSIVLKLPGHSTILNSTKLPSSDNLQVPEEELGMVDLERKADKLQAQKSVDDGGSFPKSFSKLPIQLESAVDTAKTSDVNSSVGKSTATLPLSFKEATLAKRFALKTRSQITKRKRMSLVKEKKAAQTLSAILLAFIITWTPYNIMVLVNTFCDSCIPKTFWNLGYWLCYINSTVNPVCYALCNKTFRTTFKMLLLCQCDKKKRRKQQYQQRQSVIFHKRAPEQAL
Sequence of Histamine H3 receptor (Q9Y5N1 whole entry): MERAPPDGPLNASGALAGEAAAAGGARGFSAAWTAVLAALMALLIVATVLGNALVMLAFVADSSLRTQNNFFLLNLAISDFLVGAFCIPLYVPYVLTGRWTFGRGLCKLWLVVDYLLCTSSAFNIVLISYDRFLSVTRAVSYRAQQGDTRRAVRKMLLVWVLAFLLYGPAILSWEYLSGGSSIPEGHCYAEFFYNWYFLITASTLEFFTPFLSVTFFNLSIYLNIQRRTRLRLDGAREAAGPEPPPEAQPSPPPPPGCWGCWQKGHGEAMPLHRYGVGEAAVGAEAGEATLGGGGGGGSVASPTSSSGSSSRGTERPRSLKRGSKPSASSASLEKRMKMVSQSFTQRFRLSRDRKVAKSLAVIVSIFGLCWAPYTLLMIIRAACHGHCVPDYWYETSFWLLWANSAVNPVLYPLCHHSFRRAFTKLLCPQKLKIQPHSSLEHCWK

Compound | AC50 [1] | AC50 [2] | AC50 [3] | AC50 (Cannabinoid receptor 1) | AC50 (Estrogen receptor) | AC50 (Histamine H1 receptor) | AC50 [4] | AC50 [5] | AC50 (Thromboxane A2 receptor) | AC50 (Progesterone receptor) | AC50 (Mu-type opioid receptor) | AC50 (Histamine H3 receptor) | AC50 [6]
O=C(Cc1ccc(-c2ccccc2)cc1)Nc1ccccn1 [DIFENPIRAMIDE] | > 30 µM | > 30 µM | > 30 µM | > 30 µM | > 30 µM | > 30 µM | > 30 µM | 2.16 µM | > 30 µM | – | – | – | –
O=C(OCC(O)CO)c1ccccc1Nc1ccnc2cc(Cl)ccc12 (stereo unspecified) [GLAFENINE] | > 30 µM | > 30 µM | > 30 µM | > 30 µM | > 30 µM | > 30 µM | > 30 µM | 17 µM | > 30 µM | > 30 µM | > 30 µM | > 30 µM | –
CO[C@H]1C[C@@H]2CC[C@@H](C)[C@@](O)(O2)C(=O)C(=O)N2CCCC[C@H]2C(=O)O[C@H]([C@H](C)C[C@@H]2CC[C@@H](O)[C@H](OC)C2)CC(=O)[C@H](C)/C=C(\C)[C@@H](O)[C@@H](OC)C(=O)[C@H](C)C[C@H](C)/C=C/C=C/C=C/1C [SIROLIMUS] | > 30 µM | > 30 µM | – | > 30 µM | > 30 µM | – | 23.3 µM | > 30 µM | > 30 µM | – | > 10 µM | > 10 µM | > 10 µM
